Series [1] in a line: Solubility of the compound at pH 6.5. The conditions noted are these: buffer. It is filed as physicochemical.
The subject of the next series is rat MDR1A. Briefly: Apparent permeability in pig LLC-PK1 expressing rat MDR1A. It is filed as ADME, cell-based, Sus scrofa.
Series [2] deals with Rattus norvegicus. Briefly: Dose normalized AUC in po dosed rat. The series is classed as ADME, organism-based. The conditions noted are these: in vivo.
Series [3] in a line: Half-life in po dosed rat. The series is classed as ADME, organism-based. The following applies: in vivo.
Series [4] can be described thus: Clearance in po dosed rat. The series is classed as ADME, organism-based. The following applies: in vivo.
A short description of series [5]: Oral bioavailability in rat. It is filed as ADME, organism-based. The following applies: in vivo.
For series [6], the system named is Rattus norvegicus. Briefly: Volume of distribution in po dosed rat. The following applies: in vivo. It is filed as ADME, organism-based.

Converted amounts (≈) assume the structure as drawn.

As usually defined, the solubility is the dissolved amount per volume that the medium holds. A low value points to a poorly soluble substance. The Papp is a coefficient for how fast a substance crosses the barrier. What is called half-life is the time in which the quantity being followed falls by half. Low readings indicate fast loss, high ones slow loss. Broadly, the CL/F is clearance divided by bioavailability, as obtained after extravascular dosing.

In series [1], `Cn1ncc2c(NC3(c4ccc(C(F)(F)F)cc4)CC3)nc(O)nc21` had a solubility of 175 µM (≈ 61.1 µg/mL).

Turning to `Cn1ncc2c(NCc3ccc(C(F)(F)F)cn3)nc(Cl)nc21`, in series [1], the solubility was 176 µM (≈ 60.3 µg/mL).

In turn, `Cn1ncc2c(NC(C)(C)c3ccc(C(F)(F)F)cc3)nc(Cl)nc21` showed a solubility in series [1] of 183 µM (≈ 67.7 µg/mL).

Compound `Cn1ncc2c(NCCc3ccc(C(F)(F)F)cc3)nc(Cl)nc21` showed a solubility in series [1] of 150 µM (≈ 53.4 µg/mL).

As for `Cn1ncc2c(NC3(c4ccc(C(F)(F)F)cc4)CC3)nc(Cl)nc21`, the solubility in series [1] stood at 156 µM (≈ 57.4 µg/mL).

With `Cn1ncc2c(NCc3ccc(C(F)(F)F)cc3)nc(Cl)nc21`, the solubility in series [1] worked out at 164 µM (≈ 56 µg/mL).

With `Cn1ncc2c(N3CCCCC3c3ccc(C(F)(F)F)cc3)nc(Cl)nc21` (configuration not stated), the solubility in series [1] was found to be 138 µM (≈ 54.6 µg/mL).

As to `C[C@@H](Nc1nc(Cl)nc2c1cnn2C)c1ccc(C(F)(F)F)cc1`, in series [1], the solubility was 159 µM (≈ 56.6 µg/mL).

On to `Cc1nc(NC2(c3ccc(C(F)(F)F)cc3)CC2)c2cnn(C)c2n1`, for which the Papp with rat MDR1A fell in the range of 0.82 to 26.7 ×10⁻⁶ cm/s. In the series with Rattus norvegicus [2], the AUC/dose stood at 0.24 µM·kg·h/mg. Also, the half-life in series [3] was 1.34 h. This compound registered a CL/F in series [4] of 44.4 mL/min/kg. In series [5], the bioavailability came to 16.9%. This compound also yielded a Vd in the series with Rattus norvegicus [6] of 3.78 L/kg.

In series [1], `Cn1ncc2c(NCc3cccc(Cl)c3)nc(Cl)nc21` showed a solubility of 78 µM (≈ 24 µg/mL).

Take `Cn1ncc2c(NCc3ccccc3Cl)nc(Cl)nc21`: the concentration in solution in series [1] (solubility) was 44 µM (≈ 13.6 µg/mL).

In the case of `Cn1ncc2c(NC3(c4ccc(C(F)(F)F)cc4)CC3)nc(C3CC3)nc21`, the solubility in series [1] came out at 125 µM (≈ 46.7 µg/mL).

Consider `Cn1ncc2c(N3CCCC3c3ccc(C(F)(F)F)cc3)nc(Cl)nc21` (configuration not stated), for which the solubility in series [1] is 139 µM (≈ 53.1 µg/mL).

As to `FC(F)(F)c1ccc(C2(Nc3nc(Cl)nc4[nH]ncc34)CC2)cc1`, in the series with rat MDR1A, the Papp was in the range of 1.63 to 26.5 ×10⁻⁶ cm/s. This compound gave an AUC/dose with Rattus norvegicus [2] of 6.59 µM·kg·h/mg. Besides, the half-life in series [3] was 6.33 h. The CL/F in series [4] came out at 8.44 mL/min/kg. In series [5], the bioavailability worked out at 146%. The same compound came in with a solubility in series [1] of 105 µM (≈ 37.1 µg/mL). The Vd with Rattus norvegicus [6] worked out at 4.64 L/kg.

`CNc1nc(Cl)nc2c1cnn2C` had a solubility in series [1] of 206 µM (≈ 40.7 µg/mL).

With `Cn1ncc2c(NCc3ccc(Cl)cc3)nc(Cl)nc21`, the solubility in series [1] is 145 µM (≈ 44.7 µg/mL).

Values taken from ChEMBL document CHEMBL4177679, “The identification of a novel lead class for phosphodiesterase 2 inhibition by fragment-based drug design” (Bioorg Med Chem Lett, 2017).
